Source: patent US12162840B2, “Herbicidal compositions” (SYNGENTA PARTICIPATIONS AG, priority 2018, dated 2024)

Test system: cool season plant species
Assay: B2 Post-emergence efficacy Test 2, cool season plant species
Format: in vivo
Conditions: 15 days after application, 0=no damage, 100=total kill
Method: Seeds of a variety of test species (see Table B1) were sown in standard soil in pots. After cultivation for 12 days (post-emergence) under controlled conditions in a glasshouse (at 24/18° C. or 20/16° C., at day/night; 16 hours light; 65% humidity), the plants were sprayed with an aqueous spray solution derived from the formulation of the technical active ingredient dissolved in IF50 (see Table B2 for composition) and adjuvant (Genapol XO80) was added to the spray solution at a rate of 0.2% v/v. [table] [table] After application, the test plants were grown in a glasshouse under controlled conditions (as above) and watered twice daily. Herbicidal activity was evaluated 15 days after application on a 0-100 scale. The results, where 0=no damage to test plant and 100=total kill of test plant are shown below in Tables 6 to 9.

## Cc1nn(C)c(=O)c(-c2c(F)ccc(Cl)c2CCc2ccccc2C(F)(F)F)c1O [Compound 1.066]
15 g/Ha
  Herbicidal activity (0-100 scale) ALOMY: 20
  Herbicidal activity (0-100 scale) AVEFA: 0
  Herbicidal activity (0-100 scale) BEAVA: 80
  Herbicidal activity (0-100 scale) BROTE: 0
  Herbicidal activity (0-100 scale) BRSNN: 90
  Herbicidal activity (0-100 scale) GALAP: 20
  Herbicidal activity (0-100 scale) HORVW: 0
  Herbicidal activity (0-100 scale) KCHSC: 0
  Herbicidal activity (0-100 scale) LOLPE: 10
  Herbicidal activity (0-100 scale) POAAN: 20
  Herbicidal activity (0-100 scale) POLCO: 70
  Herbicidal activity (0-100 scale) SINAR: 60
  Herbicidal activity (0-100 scale) STEME: 80
  Herbicidal activity (0-100 scale) TRZAW: 0
  Herbicidal activity (0-100 scale) VERPE: 80
30 g/Ha
  Herbicidal activity (0-100 scale) ALOMY: 50
  Herbicidal activity (0-100 scale) AVEFA: 20
  Herbicidal activity (0-100 scale) BEAVA: 80
  Herbicidal activity (0-100 scale) BROTE: 20
  Herbicidal activity (0-100 scale) BRSNN: 90
  Herbicidal activity (0-100 scale) CHEAL: 90
  Herbicidal activity (0-100 scale) GALAP: 20
  Herbicidal activity (0-100 scale) HORVW: 10
  Herbicidal activity (0-100 scale) KCHSC: 0
  Herbicidal activity (0-100 scale) LOLPE: 20
  Herbicidal activity (0-100 scale) POAAN: 70
  Herbicidal activity (0-100 scale) POLCO: 80
  Herbicidal activity (0-100 scale) SINAR: 60
  Herbicidal activity (0-100 scale) STEME: 60
  Herbicidal activity (0-100 scale) TRZAW: 10
  Herbicidal activity (0-100 scale) VERPE: 90
60 g/Ha
  Herbicidal activity (0-100 scale) ALOMY: 70
  Herbicidal activity (0-100 scale) AVEFA: 40
  Herbicidal activity (0-100 scale) BEAVA: 80
  Herbicidal activity (0-100 scale) BROTE: 60
  Herbicidal activity (0-100 scale) BRSNN: 90
  Herbicidal activity (0-100 scale) CHEAL: 90
  Herbicidal activity (0-100 scale) GALAP: 20
  Herbicidal activity (0-100 scale) HORVW: 20
  Herbicidal activity (0-100 scale) KCHSC: 0
  Herbicidal activity (0-100 scale) LOLPE: 80
  Herbicidal activity (0-100 scale) POAAN: 80
  Herbicidal activity (0-100 scale) POLCO: 90
  Herbicidal activity (0-100 scale) SINAR: 80
  Herbicidal activity (0-100 scale) STEME: 90
  Herbicidal activity (0-100 scale) TRZAW: 40
  Herbicidal activity (0-100 scale) VERPE: 100
125 g/Ha
  Herbicidal activity (0-100 scale) ALOMY: 80
  Herbicidal activity (0-100 scale) AVEFA: 90
  Herbicidal activity (0-100 scale) BEAVA: 80
  Herbicidal activity (0-100 scale) BROTE: 70
  Herbicidal activity (0-100 scale) BRSNN: 90
  Herbicidal activity (0-100 scale) CHEAL: 90
  Herbicidal activity (0-100 scale) GALAP: 20
  Herbicidal activity (0-100 scale) HORVW: 70
  Herbicidal activity (0-100 scale) KCHSC: 10
  Herbicidal activity (0-100 scale) LOLPE: 90
  Herbicidal activity (0-100 scale) POAAN: 90
  Herbicidal activity (0-100 scale) POLCO: 90
  Herbicidal activity (0-100 scale) SINAR: 90
  Herbicidal activity (0-100 scale) STEME: 90
  Herbicidal activity (0-100 scale) TRZAW: 60
  Herbicidal activity (0-100 scale) VERPE: 100
250 g/Ha
  Herbicidal activity (0-100 scale) ALOMY: 90
  Herbicidal activity (0-100 scale) AVEFA: 90
  Herbicidal activity (0-100 scale) BEAVA: 80
  Herbicidal activity (0-100 scale) BROTE: 80
  Herbicidal activity (0-100 scale) BRSNN: 90
  Herbicidal activity (0-100 scale) CHEAL: 100
  Herbicidal activity (0-100 scale) GALAP: 30
  Herbicidal activity (0-100 scale) HORVW: 80
  Herbicidal activity (0-100 scale) KCHSC: 20
  Herbicidal activity (0-100 scale) LOLPE: 90
  Herbicidal activity (0-100 scale) POAAN: 90
  Herbicidal activity (0-100 scale) POLCO: 100
  Herbicidal activity (0-100 scale) SINAR: 90
  Herbicidal activity (0-100 scale) STEME: 90
  Herbicidal activity (0-100 scale) TRZAW: 70
  Herbicidal activity (0-100 scale) VERPE: 100
500 g/Ha
  Herbicidal activity (0-100 scale) ALOMY: 90
  Herbicidal activity (0-100 scale) AVEFA: 90
  Herbicidal activity (0-100 scale) BEAVA: 90
  Herbicidal activity (0-100 scale) BROTE: 90
  Herbicidal activity (0-100 scale) BRSNN: 90
  Herbicidal activity (0-100 scale) CHEAL: 100
  Herbicidal activity (0-100 scale) GALAP: 90
  Herbicidal activity (0-100 scale) HORVW: 90
  Herbicidal activity (0-100 scale) KCHSC: 20
  Herbicidal activity (0-100 scale) LOLPE: 100
  Herbicidal activity (0-100 scale) POAAN: 90
  Herbicidal activity (0-100 scale) POLCO: 100
  Herbicidal activity (0-100 scale) SINAR: 90
  Herbicidal activity (0-100 scale) STEME: 100
  Herbicidal activity (0-100 scale) TRZAW: 80
  Herbicidal activity (0-100 scale) VERPE: 100
